Test results published in patent US8853418B2, “Cyclopentylpyrazoles as N-type calcium channel blockers” (Janssen Pharmaceutica NV, priority 2012, dated 2014).
Like-named read-outs stand apart in the source and are kept apart here.

Columns and labels:
[1] = target: N-type calcium channel (α1B (Cav2.2), β3 and α2δ subunits) (Homo sapiens, UniProt Q00975); test: Functional Assay: Antagonism of N-Type Calcium Channel (FDSS calcium mobilization, KCl depolarization); type: cell-based; conditions: for IC50: HEK cell line, 50 mM KCl depolarization, six-point concentration-response, read-out: FDSS IC50
Chain of N-type calcium channel (α1B (Cav2.2), β3 and α2δ subunits) (Q00975 whole entry): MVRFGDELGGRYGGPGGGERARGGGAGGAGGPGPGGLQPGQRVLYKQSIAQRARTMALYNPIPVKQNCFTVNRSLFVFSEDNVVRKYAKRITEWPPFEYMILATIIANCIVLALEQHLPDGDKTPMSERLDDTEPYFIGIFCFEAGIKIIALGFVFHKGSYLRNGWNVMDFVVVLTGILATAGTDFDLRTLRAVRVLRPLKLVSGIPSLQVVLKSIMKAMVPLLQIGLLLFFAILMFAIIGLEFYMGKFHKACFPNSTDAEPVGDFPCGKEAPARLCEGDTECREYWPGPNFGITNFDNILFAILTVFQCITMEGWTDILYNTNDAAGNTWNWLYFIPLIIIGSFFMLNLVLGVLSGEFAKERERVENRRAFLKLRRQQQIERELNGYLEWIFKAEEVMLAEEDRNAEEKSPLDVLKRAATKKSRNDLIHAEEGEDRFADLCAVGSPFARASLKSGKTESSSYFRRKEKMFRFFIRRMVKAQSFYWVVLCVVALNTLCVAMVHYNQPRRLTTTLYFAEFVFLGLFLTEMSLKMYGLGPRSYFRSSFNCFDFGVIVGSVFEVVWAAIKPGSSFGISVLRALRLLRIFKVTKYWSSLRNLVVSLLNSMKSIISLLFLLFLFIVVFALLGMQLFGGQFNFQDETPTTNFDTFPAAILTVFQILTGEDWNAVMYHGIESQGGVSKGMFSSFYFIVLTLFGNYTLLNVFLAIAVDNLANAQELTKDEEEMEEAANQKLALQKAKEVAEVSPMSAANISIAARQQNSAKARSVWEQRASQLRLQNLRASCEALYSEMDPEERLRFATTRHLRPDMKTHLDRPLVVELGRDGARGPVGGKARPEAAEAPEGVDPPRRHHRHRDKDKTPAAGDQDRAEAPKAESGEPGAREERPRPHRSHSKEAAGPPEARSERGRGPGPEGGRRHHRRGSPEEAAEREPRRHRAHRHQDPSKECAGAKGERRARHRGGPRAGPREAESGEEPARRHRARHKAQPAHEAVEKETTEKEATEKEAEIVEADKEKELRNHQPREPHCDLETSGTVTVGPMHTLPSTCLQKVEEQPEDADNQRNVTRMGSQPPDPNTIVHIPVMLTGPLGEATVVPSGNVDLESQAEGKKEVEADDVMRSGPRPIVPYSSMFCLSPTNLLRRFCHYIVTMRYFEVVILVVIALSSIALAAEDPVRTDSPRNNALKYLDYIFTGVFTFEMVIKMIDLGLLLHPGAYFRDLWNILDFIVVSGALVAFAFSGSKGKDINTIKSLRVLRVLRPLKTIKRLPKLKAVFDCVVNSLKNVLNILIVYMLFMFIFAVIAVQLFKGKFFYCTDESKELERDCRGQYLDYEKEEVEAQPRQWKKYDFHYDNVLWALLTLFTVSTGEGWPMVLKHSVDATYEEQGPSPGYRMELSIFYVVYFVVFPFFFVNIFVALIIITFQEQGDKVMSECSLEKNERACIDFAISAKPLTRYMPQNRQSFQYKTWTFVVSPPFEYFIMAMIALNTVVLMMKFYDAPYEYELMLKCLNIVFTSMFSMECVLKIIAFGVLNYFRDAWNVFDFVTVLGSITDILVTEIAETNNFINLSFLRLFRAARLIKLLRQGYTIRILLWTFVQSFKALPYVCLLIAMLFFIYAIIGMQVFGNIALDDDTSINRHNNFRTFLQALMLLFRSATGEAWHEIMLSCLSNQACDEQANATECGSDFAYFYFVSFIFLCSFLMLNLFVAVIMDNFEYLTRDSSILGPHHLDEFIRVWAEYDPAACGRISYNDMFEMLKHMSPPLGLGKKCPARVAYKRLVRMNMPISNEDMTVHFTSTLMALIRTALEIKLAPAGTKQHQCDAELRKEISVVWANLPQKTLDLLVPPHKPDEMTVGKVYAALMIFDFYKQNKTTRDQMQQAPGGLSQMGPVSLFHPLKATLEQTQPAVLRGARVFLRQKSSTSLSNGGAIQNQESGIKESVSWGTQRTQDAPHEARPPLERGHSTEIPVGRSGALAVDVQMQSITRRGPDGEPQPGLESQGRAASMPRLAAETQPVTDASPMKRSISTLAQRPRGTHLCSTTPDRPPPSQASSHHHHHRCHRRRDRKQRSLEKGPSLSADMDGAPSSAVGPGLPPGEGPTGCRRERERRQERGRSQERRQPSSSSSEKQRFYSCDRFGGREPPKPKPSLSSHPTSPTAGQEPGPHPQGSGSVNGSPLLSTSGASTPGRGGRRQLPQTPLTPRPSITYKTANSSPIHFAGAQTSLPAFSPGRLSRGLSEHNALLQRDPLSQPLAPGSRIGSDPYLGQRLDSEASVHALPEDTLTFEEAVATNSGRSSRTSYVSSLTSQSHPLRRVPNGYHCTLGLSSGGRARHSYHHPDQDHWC
Chain of N-type calcium channel (α1B (Cav2.2), β3 and α2δ subunits) (P54284 whole entry partner): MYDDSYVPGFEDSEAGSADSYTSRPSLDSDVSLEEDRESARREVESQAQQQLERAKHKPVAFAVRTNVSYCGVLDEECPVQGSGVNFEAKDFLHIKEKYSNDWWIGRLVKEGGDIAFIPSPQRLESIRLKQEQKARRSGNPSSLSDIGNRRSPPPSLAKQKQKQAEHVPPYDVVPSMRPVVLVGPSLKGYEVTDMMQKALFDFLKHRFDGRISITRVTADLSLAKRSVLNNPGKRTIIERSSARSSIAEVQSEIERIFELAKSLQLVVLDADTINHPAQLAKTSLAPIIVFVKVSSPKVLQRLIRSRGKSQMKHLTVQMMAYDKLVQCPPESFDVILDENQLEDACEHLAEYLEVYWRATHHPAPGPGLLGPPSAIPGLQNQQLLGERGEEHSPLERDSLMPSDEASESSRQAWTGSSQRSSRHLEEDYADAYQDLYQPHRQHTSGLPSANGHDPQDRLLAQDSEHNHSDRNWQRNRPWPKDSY
Chain of N-type calcium channel (α1B (Cav2.2), β3 and α2δ subunits) (P54289 25-946 partner limits assumed): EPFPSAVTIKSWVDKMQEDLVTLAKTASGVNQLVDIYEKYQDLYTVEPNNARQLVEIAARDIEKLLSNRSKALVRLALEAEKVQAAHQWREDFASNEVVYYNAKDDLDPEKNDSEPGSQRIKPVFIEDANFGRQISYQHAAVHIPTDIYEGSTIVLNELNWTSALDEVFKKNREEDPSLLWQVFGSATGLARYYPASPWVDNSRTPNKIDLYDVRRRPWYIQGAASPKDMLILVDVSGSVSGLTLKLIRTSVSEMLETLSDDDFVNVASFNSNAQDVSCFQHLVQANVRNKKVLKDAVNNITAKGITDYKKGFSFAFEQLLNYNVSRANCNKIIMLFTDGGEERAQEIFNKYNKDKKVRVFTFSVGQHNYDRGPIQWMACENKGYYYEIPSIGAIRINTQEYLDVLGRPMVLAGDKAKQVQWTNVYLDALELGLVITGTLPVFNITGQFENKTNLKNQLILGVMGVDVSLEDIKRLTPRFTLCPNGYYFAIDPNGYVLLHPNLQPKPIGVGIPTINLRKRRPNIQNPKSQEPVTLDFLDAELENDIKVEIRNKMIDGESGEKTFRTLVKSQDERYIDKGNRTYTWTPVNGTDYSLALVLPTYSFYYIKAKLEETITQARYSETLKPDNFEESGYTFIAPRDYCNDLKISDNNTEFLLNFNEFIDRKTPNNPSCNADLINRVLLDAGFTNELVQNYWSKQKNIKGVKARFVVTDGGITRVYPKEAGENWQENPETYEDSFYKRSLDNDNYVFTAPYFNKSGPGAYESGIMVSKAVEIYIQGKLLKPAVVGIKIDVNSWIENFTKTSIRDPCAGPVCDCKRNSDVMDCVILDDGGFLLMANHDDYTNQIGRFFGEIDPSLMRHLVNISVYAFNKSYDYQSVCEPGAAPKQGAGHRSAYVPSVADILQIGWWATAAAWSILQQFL
Chain of N-type calcium channel (α1B (Cav2.2), β3 and α2δ subunits) (P54289 947-1103 partner limits assumed): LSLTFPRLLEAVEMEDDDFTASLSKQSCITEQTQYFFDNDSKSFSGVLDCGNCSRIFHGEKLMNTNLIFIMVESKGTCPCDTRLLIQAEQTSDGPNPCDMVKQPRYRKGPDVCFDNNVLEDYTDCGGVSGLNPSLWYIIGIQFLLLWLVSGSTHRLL
Experimental: A stable cell line (HEK parent) co-expressing the α1B (Cav2.2), β3 and α2δ subunits of the N-type calcium channel subunits was used. These cells were routinely grown as monolayers in low glucose-containing Dulbecco's Modified Eagle Medium supplemented with 10% FBS, 2 mM L-glutamine, 100 I.U./mL penicillin, 100 μg/mL streptomycin, 400 μg/mL G418 and 200 μg/mL Zeocin (split ratio=1:5). Cells were maintained in 5% CO2 at 37° C. Compounds of Formula (I) were prepared as 10 mM stocks in DMSO from neat compound, if available. Otherwise, the 5 or 10 mM DMSO stock solutions provided in-house were used.
Calcium mobilization responses to KCl depolarization were evaluated by measuring the intensity of calcium-mediated fluorescent signal in the presence of BD Calcium Assay Dye (BD Biosciences, Franklin Lakes, N.J., U.S.A.), utilizing a Functional Drug Screening System (FDSS) by Hamamatsu Corporation (Bridgewater, N.J. U.S.A.).
Twenty-four hr prior to assay, cells were seeded in clear-base poly-D-lysine-coated 384-well plates (BD Biosciences) at a density of 5,000 cells per well in culture medium and grown overnight in 5% CO2 at 37° C. On the day of assay, growth media were removed, and cells were loaded with BD calcium assay dye (BD Biosciences) for 35 min at 37° C. under 5% CO2 and then for 25 min at room temp. Utilizing the FDSS, cells were exposed to representative compounds of Formula (I) at varying concentrations, and intracellular calcium was measured for 5 min prior to the addition of 50 mM KCl for an additional 3 min of measurement.
Calculations and Formulas
IC50 values for representative compounds of Formula (I) were determined from six-point concentration-response experiments and represent the concentration of said compound required to inhibit 50% of the maximal response. Maximal fluorescence intensity (FI) achieved upon addition of 50 mM KCl was exported from the FDSS software and further analyzed using GraphPad Prism 3.02 (Graph Pad Software Inc., San Diego, Calif., U.S.A.). Data were normalized to the maximum average counts from quadruplicate wells for each condition in the presence of 50 mM KCl and to the minimum average counts in the presence of buffer. Theoretical curves were generated using nonlinear regression curve-fitting analysis of either sigmoidal concentration-response or sigmoidal concentration-response (variable slope), and the IC50 values with the best-fit curve determined by GraphPad Prism were reported.

N-type calcium channel = N-type calcium channel (Homo sapiens, UniProt Q00975); test: Automated Electrophysiology Assay (QPatch-HT whole-cell patch clamp; low- and high-frequency stimulation); type: cell-based
Chain of N-type calcium channel (Q00975 whole entry): as the sequence (Q00975 whole entry) above
Chain of N-type calcium channel (P54284 whole entry partner): as the sequence (P54284 whole entry partner) above
Chain of N-type calcium channel (P54289 25-946 partner limits assumed): as the sequence (P54289 25-946 partner limits assumed) above
Chain of N-type calcium channel (P54289 947-1103 partner limits assumed): as the sequence (P54289 947-1103 partner limits assumed) above

[2] = high-frequency stimulation (15th pulse), read-out: QPatch at High Frequency % Inhibition
[3] = low frequency, read-out: QPatch at Low Frequency % Inhibition

IC50 [1] | inhibition at 1 µM (N-type calcium channel; [2]) | inhibition at 1 µM (N-type calcium channel; [3]) | inhibition at 0.33 µM [1] | SMILES | also measured
33 nM | 69% | 76% | – | COc1ccccc1-n1nc2c(c1-c1ccc(Cl)cc1)CC(CCOC(=O)N1CCOCC1)C2 (stereo not drawn) [Compound 2, 2-[3-(4-chlorophenyl)-2-(2-methoxyphenyl)-2,4,5,6-tetrahydrocyclopenta[c]pyrazol-5-yl]ethyl morpholine-4-carboxylate] | inhibition at 0.25 µM (N-type calcium channel; [2]): 58%; inhibition at 5 µM (N-type calcium channel; [2]): 97%; inhibition at 0.25 µM (N-type calcium channel; [3]): 54%; inhibition at 5 µM (N-type calcium channel; [3]): 90%
26 nM | 76% | 69% | – | COc1ccccc1-n1nc2c(c1-c1ccc(Cl)cc1)CC(CCOC(=O)N(C)C)C2 (stereo not drawn) [Compound 3, 2-[3-(4-chlorophenyl)-2-(2-methoxyphenyl)-2,4,5,6-tetrahydrocyclopenta[c]pyrazol-5-yl]ethyl dimethylcarbamate] | inhibition at 0.25 µM (N-type calcium channel; [2]): 57%; inhibition at 5 µM (N-type calcium channel; [2]): 88%; inhibition at 0.25 µM (N-type calcium channel; [3]): 35%; inhibition at 5 µM (N-type calcium channel; [3]): 93%
43 nM | – | – | – | CCOC(=O)C1Cc2nn(-c3ccccc3OC)c(-c3ccc(Cl)cc3)c2C1 (stereo not drawn) [Compound 5, ethyl 3-(4-chlorophenyl)-2-(2-methoxyphenyl)-2,4,5,6-tetrahydrocyclopenta[c]pyrazole-5-carboxylate] | inhibition at 5 µM (N-type calcium channel; [2]): 85%; inhibition at 5 µM (N-type calcium channel; [3]): 82%
55 nM | 57% | 62% | 96% | COc1ccccc1-n1nc2c(c1-c1ccc(Cl)cc1)CC(CNS(C)(=O)=O)C2 (stereo not drawn) [Compound 8, N-{[3-(4-chlorophenyl)-2-(2-methoxyphenyl)-2,4,5,6-tetrahydrocyclopenta[c]pyrazol-5-yl]methyl}methanesulfonamide] | inhibition at 0.25 µM (N-type calcium channel; [2]): -12%; inhibition at 0.25 µM (N-type calcium channel; [3]): -9%
73 nM | 28% | 29% | 99% | COc1ccccc1-n1nc2c(c1-c1ccc(Cl)cc1)CC(CCNS(C)(=O)=O)C2 (stereo not drawn) [Compound 11, N-{2-[3-(4-chlorophenyl)-2-(2-methoxyphenyl)-2,4,5,6-tetrahydrocyclopenta[c]pyrazol-5-yl]ethyl}methanesulfonamide] | –
70 nM | 26% | 15% | – | COc1ccccc1-n1nc2c(c1-c1ccc(Cl)cc1)CC(CCNC(C)=O)C2 (stereo not drawn) [Compound 12, N-{2-[3-(4-chlorophenyl)-2-(2-methoxyphenyl)-2,4,5,6-tetrahydrocyclopenta[c]pyrazol-5-yl]ethyl}acetamide] | –
38 nM | 67% | 42% | – | COc1ccccc1-n1nc2c(c1-c1ccc(Cl)cc1)CC(CCNC(=O)OC(C)(C)C)C2 (stereo not drawn) [Compound 13, tert-butyl{2-[3-(4-chlorophenyl)-2-(2-methoxyphenyl)-2,4,5,6-tetrahydrocyclopenta[c]pyrazol-5-yl]ethyl}carbamate] | –
– | – | – | 33% | COc1ccccc1-n1nc2c(c1-c1ccc(Cl)cc1)CC(N1CCCC1)C2 (stereo not drawn) [Compound 122, 3-(4-chlorophenyl)-2-(2-methoxyphenyl)-5-pyrrolidin-1-yl-2,4,5,6-tetrahydrocyclopenta[c]pyrazole] | –
105 nM | – | – | 67% | COc1ccccc1-n1nc2c(c1-c1ccc(C#N)cc1)C[C@H](n1cnc(C)c1C)C2 [Compound 131, 4-[(5S)-5-(4,5-dimethyl-1H-imidazol-1-yl)-2-(2-methoxyphenyl)-2,4,5,6-tetrahydrocyclopenta[c]pyrazol-3-yl]benzonitrile] | –
– | – | – | 29% | COc1ccccc1-n1nc2c(c1-c1ccc(C#N)cc1)C[C@H](n1c(C)nc(C)c1C)C2 [Compound 132, 4-[(5S)-2-(2-methoxyphenyl)-5-(2,4,5-trimethyl-1H-imidazol-1-yl)-2,4,5,6-tetrahydrocyclopenta[c]pyrazol-3-yl]benzonitrile] | –
200 nM | – | – | 50% | CCc1nccn1[C@@H]1Cc2nn(-c3ccccc3OC)c(-c3ccc(C#N)cc3)c2C1 [Compound 134, 4-[(5S)-5-(2-ethyl-1H-imidazol-1-yl)-2-(2-methoxyphenyl)-2,4,5,6-tetrahydrocyclopenta[c]pyrazol-3-yl]benzonitrile] | –
– | – | – | 44% | COc1ccccc1-n1nc2c(c1-c1ccc(C#N)cc1)C[C@H](n1ccnc1C)C2 [Compound 135, 4-[(5S)-2-(2-methoxyphenyl)-5-(2-methyl-1H-imidazol-1-yl)-2,4,5,6-tetrahydrocyclopenta[c]pyrazol-3-yl]benzonitrile] | –

Continued, molecule first:

SMILES | IC50 [1] | inhibition at 1 µM (N-type calcium channel; [2]) | inhibition at 1 µM (N-type calcium channel; [3]) | inhibition at 0.33 µM [1] | also measured
CCc1ccccc1-n1nc2c(c1-c1ccc(Cl)cc1)CC(CNC(=O)OC(C)(C)C)C2 (stereo not drawn) [Compound 16, tert-butyl{[3-(4-chlorophenyl)-2-(2-ethylphenyl)-2,4,5,6-tetrahydrocyclopenta[c]pyrazol-5-yl]methyl}carbamate] | 130 nM | 43% | 19% | – | –
COc1ccccc1-n1nc2c(c1-c1ccc(Cl)s1)CC1(C2)OC(C)(C)C(C)(C)O1 [Compound 121, 3-(5-chlorothiophen-2-yl)-2-(2-methoxyphenyl)-4′,4′,5′,5′-tetramethyl-2,6-dihydro-4H-spiro[cyclopenta[c]pyrazole-5,2′-[1,3]dioxolane]] | 30 nM | – | – | 86% | –
COC(=O)c1cn([C@@H]2Cc3nn(-c4ccccc4OC)c(-c4ccc(C#N)cc4)c3C2)nn1 [Compound 125, methyl 1-[(5S)-3-(4-cyanophenyl)-2-(2-methoxyphenyl)-2,4,5,6-tetrahydrocyclopenta[c]pyrazol-5-yl]-1H-1,2,3-triazole-4-carboxylate] | 81 nM | – | – | 70% | –
COc1ccccc1-n1nc2c(c1-c1ccc(C#N)cc1)C[C@H](n1cc(C(C)(C)O)nn1)C2 [Compound 126, 4-[(5S)-5-[4-(1-hydroxy-1-methylethyl)-1H-1,2,3-triazol-1-yl]-2-(2-methoxyphenyl)-2,4,5,6-tetrahydrocyclopenta[c]pyrazol-3-yl]benzonitrile] | – | – | – | 33% | –
COc1ccccc1-n1nc2c(c1-c1ccc(C#N)cc1)C[C@H](n1cc(COC(C)=O)nn1)C2 [Compound 128, {1-[(5S)-3-(4-cyanophenyl)-2-(2-methoxyphenyl)-2,4,5,6-tetrahydrocyclopenta[c]pyrazol-5-yl]-1H-1,2,3-triazol-4-yl}methyl acetate] | 170 nM | – | – | 59% | –
COCc1cn([C@@H]2Cc3nn(-c4ccccc4OC)c(-c4ccc(C#N)cc4)c3C2)nn1 [Compound 129, 4-[(5S)-5-[4-(methoxymethyl)-1H-1,2,3-triazol-1-yl]-2-(2-methoxyphenyl)-2,4,5,6-tetrahydrocyclopenta[c]pyrazol-3-yl]benzonitrile] | – | – | – | 47% | –
CCc1nc(C)c(C)n1[C@@H]1Cc2nn(-c3ccccc3OC)c(-c3ccc(C#N)cc3)c2C1 [Compound 133, 4-[(5S)-5-(2-ethyl-4,5-dimethyl-1H-imidazol-1-yl)-2-(2-methoxyphenyl)-2,4,5,6-tetrahydrocyclopenta[c]pyrazol-3-yl]benzonitrile] | – | – | – | 35% | –
CCc1nnn([C@@H]2Cc3nn(-c4ccccc4OC)c(-c4ccc(C#N)cc4)c3C2)c1CC [Compound 136, 4-[(5S)-5-(4,5-diethyl-1H-1,2,3-triazol-1-yl)-2-(2-methoxyphenyl)-2,4,5,6-tetrahydrocyclopenta[c]pyrazol-3-yl]benzonitrile] | 16 nM | – | – | 89% | –
CCc1nc(CC)n([C@@H]2Cc3nn(-c4ccccc4OC)c(-c4ccc(C#N)cc4)c3C2)c1CC [Compound 137, 4-[(5S)-2-(2-methoxyphenyl)-5-(2,4,5-triethyl-1H-imidazol-1-yl)-2,4,5,6-tetrahydrocyclopenta[c]pyrazol-3-yl]benzonitrile] | – | – | – | 49% | –
CCc1nc(C)n([C@@H]2Cc3nn(-c4ccccc4OC)c(-c4ccc(C#N)cc4)c3C2)c1CC [Compound 138, 4-[(5S)-5-(4,5-diethyl-2-methyl-1H-imidazol-1-yl)-2-(2-methoxyphenyl)-2,4,5,6-tetrahydrocyclopenta[c]pyrazol-3-yl]benzonitrile] | 320 nM | – | – | 63% | –
